Laboratory results published in patent US10556907B2 (AbbVie Inc., priority 2015, dated 2020).
Structures can show the parent of a compound that is named as a salt.

What was measured:
Test in all cases: Method 1: intracellular Ca2+ release (FLIPR, Calcium 5) in recombinant CHO-K1 cells
Type in all cases: cell-based
human S1PR4 receptor = target: T1, human S1PR4 receptor (Homo sapiens, UniProt O95977); settings: (1): determined with method 1; read-out: S1P4 EC50
T1 construct: host or cells: CHO-K1
T1 sequence (O95977 1-384): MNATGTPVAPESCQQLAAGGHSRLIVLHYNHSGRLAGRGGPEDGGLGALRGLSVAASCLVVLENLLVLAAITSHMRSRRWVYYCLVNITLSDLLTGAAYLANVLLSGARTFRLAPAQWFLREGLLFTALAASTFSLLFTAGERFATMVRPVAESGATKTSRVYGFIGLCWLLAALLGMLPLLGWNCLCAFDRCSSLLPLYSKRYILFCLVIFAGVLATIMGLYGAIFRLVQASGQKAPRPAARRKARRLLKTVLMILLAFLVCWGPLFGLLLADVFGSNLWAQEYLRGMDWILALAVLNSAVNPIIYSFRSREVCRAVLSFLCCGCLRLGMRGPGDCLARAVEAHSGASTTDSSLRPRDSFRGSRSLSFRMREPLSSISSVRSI
Method in brief: (§1)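 Agonist EC50 values come from nonlinear fits of FLIPR Ca2+ fluorescence, normalized to the phospho-fingolimod reference curve. Recombinant CHO-K1 (receptor plus Gq/i5, aequorin) dye-loaded 1 h at 37° C in pH 7.4 Hepes/probenecid/BSA buffer. Antagonist mode: 10 min preincubation before phospho-fingolimod at EC80.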

human S1PR1 receptor = target: T2, human S1PR1 receptor (Homo sapiens, UniProt P21453); settings: (1): determined with method 1; read-out: S1P1 EC50
T2 construct: host or cells: CHO-K1
T2 sequence (P21453 whole entry): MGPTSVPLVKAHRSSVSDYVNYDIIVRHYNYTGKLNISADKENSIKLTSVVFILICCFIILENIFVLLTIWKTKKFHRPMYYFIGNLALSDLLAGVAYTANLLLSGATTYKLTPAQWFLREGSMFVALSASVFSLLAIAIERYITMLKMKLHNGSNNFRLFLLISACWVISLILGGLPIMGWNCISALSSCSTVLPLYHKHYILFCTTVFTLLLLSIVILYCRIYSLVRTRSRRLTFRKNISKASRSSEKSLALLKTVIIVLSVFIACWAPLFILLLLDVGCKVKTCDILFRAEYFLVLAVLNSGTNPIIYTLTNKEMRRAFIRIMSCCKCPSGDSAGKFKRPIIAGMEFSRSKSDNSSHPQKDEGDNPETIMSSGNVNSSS
Method in brief: as §1

human S1PR3 receptor = target: T3, human S1PR3 receptor (Homo sapiens, UniProt Q99500); settings: (1): determined with method 1; read-out: S1P3 EC50
T3 construct: host or cells: CHO-K1
T3 sequence (Q99500 whole entry): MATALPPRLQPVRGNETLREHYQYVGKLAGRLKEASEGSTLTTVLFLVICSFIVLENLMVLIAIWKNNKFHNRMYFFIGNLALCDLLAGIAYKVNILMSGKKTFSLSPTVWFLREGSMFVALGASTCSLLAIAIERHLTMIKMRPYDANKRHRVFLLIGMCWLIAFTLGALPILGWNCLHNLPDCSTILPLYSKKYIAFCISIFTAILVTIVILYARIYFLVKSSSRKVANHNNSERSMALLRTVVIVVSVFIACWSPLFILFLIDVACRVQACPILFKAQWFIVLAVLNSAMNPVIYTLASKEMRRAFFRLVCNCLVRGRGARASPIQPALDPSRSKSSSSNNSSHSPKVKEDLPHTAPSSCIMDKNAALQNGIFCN
Method in brief: as §1

human S1PR5 receptor = target: T4, human S1PR5 receptor (Homo sapiens, UniProt Q9H228); settings: agonist potency, determined with method 1 (symbols A-D); read-out: S1P5 EC50 range
T4 construct: host or cells: CHO-K1
T4 sequence (Q9H228 whole entry): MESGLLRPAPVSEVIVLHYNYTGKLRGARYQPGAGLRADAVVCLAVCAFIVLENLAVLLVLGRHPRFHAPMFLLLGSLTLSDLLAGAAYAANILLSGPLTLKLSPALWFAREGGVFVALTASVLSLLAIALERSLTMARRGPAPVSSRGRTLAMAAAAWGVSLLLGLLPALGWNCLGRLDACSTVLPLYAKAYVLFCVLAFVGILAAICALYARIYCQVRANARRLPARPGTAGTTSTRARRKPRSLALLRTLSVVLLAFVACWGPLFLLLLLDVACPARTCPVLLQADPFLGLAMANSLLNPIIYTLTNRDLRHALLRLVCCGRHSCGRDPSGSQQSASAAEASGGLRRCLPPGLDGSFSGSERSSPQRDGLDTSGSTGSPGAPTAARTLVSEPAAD
Method in brief: as §1

O=C(O)CCN1CCc2nc(-c3ccc(OCc4cccc(F)c4)cc3F)ccc2C1 [Compound 145, 3-(2-(2-fluoro-4-((3-fluorobenzyl)oxy)phenyl)-7,8-dihydro-1,6-naphthyridin-6(5H)-yl)propanoic acid]
EC50 (human S1PR4 receptor): > 1000 nM
EC50 (human S1PR1 receptor): > 1000 nM
EC50 (human S1PR3 receptor): > 1000 nM
EC50 (human S1PR5 receptor): 10 to 100 nM

Cc1cc(-c2ccc3c(n2)CCN(CCC(=O)O)C3)ccc1OCc1ccc(C(F)(F)F)cc1 [Compound 167, 3-(2-(3-methyl-4-((4-(trifluoromethyl)benzyl)oxy)phenyl)-7,8-dihydro-1,6-naphthyridin-6(5H)-yl)propanoic acid]
EC50 (human S1PR4 receptor): > 1000 nM
EC50 (human S1PR1 receptor): > 1000 nM
EC50 (human S1PR3 receptor): > 1000 nM
EC50 (human S1PR5 receptor): < 10 nM

CC(CN1CCc2nc(-c3ccc(OCc4cc(Cl)cc(Cl)c4)cc3)ncc2C1)C(=O)O (single isomer, unassigned) [Compound 20, 3-(2-(4-((3,5-dichlorobenzyl)oxy)phenyl)-7,8-dihydropyrido[4,3-d]pyrimidin-6(5H)-yl)-2-methylpropanoic acid]
EC50 (human S1PR4 receptor): > 1000 nM
EC50 (human S1PR1 receptor): > 1000 nM
EC50 (human S1PR3 receptor): > 1000 nM
EC50 (human S1PR5 receptor): 10 to 100 nM

O=C(O)C1CC(N2CCc3nc(C#Cc4ccc(Cl)cc4)ccc3C2)C1 (stereo not drawn) [Compound 120, 3-(2-((4-chlorophenyl)ethynyl)-7,8-dihydro-1,6-naphthyridin-6(5H)-yl)cyclobutanecarboxylic acid]
EC50 (human S1PR4 receptor): > 1000 nM
EC50 (human S1PR1 receptor): > 1000 nM
EC50 (human S1PR3 receptor): > 1000 nM
EC50 (human S1PR5 receptor): 1000 to 10000 nM

CC(CC(=O)O)CN1CCc2nc(-c3ccc(C(F)(F)Cc4ccc(Cl)cc4)cc3)ncc2C1 (stereo not drawn) [Compound 265, 4-(2-(4-(2-(4-chlorophenyl)-1,1-difluoroethyl)phenyl)-7,8-dihydropyrido[4,3-d]pyrimidin-6(5H)-yl)-3-methylbutanoic acid]
EC50 (human S1PR4 receptor): > 1000 nM
EC50 (human S1PR1 receptor): > 1000 nM
EC50 (human S1PR3 receptor): > 1000 nM
EC50 (human S1PR5 receptor): 10 to 100 nM

CC(CC(=O)O)CN1CCc2nc(-c3ccc(CCc4ccc(Cl)cc4F)cc3)ncc2C1 (stereo not drawn) [Compound 250, 4-(2-(4-(4-chloro-2-fluorophenethyl)phenyl)-7,8-dihydropyrido[4,3-d]pyrimidin-6(5H)-yl)-3-methylbutanoic acid]
EC50 (human S1PR4 receptor): > 1000 nM
EC50 (human S1PR1 receptor): > 1000 nM
EC50 (human S1PR3 receptor): > 1000 nM
EC50 (human S1PR5 receptor): < 10 nM

CC(CC(=O)O)CN1CCc2nc(-c3ccc(OCc4ccc(F)cc4)cc3)ncc2C1 (stereo not drawn) [Compound 225, 4-(2-(4-((4-fluorobenzyl)oxy)phenyl)-7,8-dihydropyrido[4,3-d]pyrimidin-6(5H)-yl)-3-methylbutanoic acid]
EC50 (human S1PR4 receptor): > 1000 nM
EC50 (human S1PR1 receptor): > 1000 nM
EC50 (human S1PR3 receptor): > 1000 nM
EC50 (human S1PR5 receptor): < 10 nM

Cc1cc(-c2cc3c(cn2)CN(CCC(=O)O)CC3)ccc1OCc1ccc(C(F)(F)F)cc1 [Compound 173, 3-(6-((4(4-trifluoromethylbenzyl)oxy)-3-methylphenyl)-3,4-dihydro-2,7-naphthyridin-2(1H)-yl)propanoic acid]
EC50 (human S1PR4 receptor): > 1000 nM
EC50 (human S1PR1 receptor): > 1000 nM
EC50 (human S1PR3 receptor): > 1000 nM
EC50 (human S1PR5 receptor): < 10 nM

Cc1ccc(COc2ccc(-c3ncc4c(n3)CCN(CC(C)CC(=O)O)C4)c(F)c2)cc1C(F)(F)F (stereo not drawn) [Compound 279, 4-[2-[2-fluoro-4-[[4-methyl-3-(trifluoromethyl)phenyl]methoxy]phenyl]-7,8-dihydro-5H-pyrido[4,3-d]pyrimidin-6-yl]-3-methyl-butanoic acid 2,2,2-trifluoroacetic acid salt]
EC50 (human S1PR4 receptor): > 1000 nM
EC50 (human S1PR1 receptor): > 1000 nM
EC50 (human S1PR3 receptor): > 1000 nM
EC50 (human S1PR5 receptor): 10 to 100 nM

CC(CN1CCc2nc(-c3ccc(OCc4cc(Cl)cc(Cl)c4)cc3)ncc2C1)C(=O)O (stereo not drawn) [Compound 17, 3-(2-(4-((3,5-dichlorobenzyl)oxy)phenyl)-7,8-dihydropyrido[4,3-d]pyrimidin-6(5H)-yl)-2-methylpropanoic acid]
EC50 (human S1PR4 receptor): > 1000 nM
EC50 (human S1PR1 receptor): > 1000 nM
EC50 (human S1PR3 receptor): > 1000 nM
EC50 (human S1PR5 receptor): < 10 nM

CC(CC(=O)O)CN1CCc2nc(-c3ccc(OCc4c(Cl)cccc4Cl)cc3)ncc2C1 (stereo not drawn) [Compound 243, 4-[2-[4-[(2,6-dichlorophenyl)methoxy]phenyl]-7,8-dihydro-5H-pyrido[4,3-d]pyrimidin-6-yl]-3-methyl-butanoic acid 2,2,2-trifluoroacetic acid salt]
EC50 (human S1PR4 receptor): > 1000 nM
EC50 (human S1PR1 receptor): > 1000 nM
EC50 (human S1PR3 receptor): > 1000 nM
EC50 (human S1PR5 receptor): < 10 nM

CC(C)(CC(=O)O)CN1CCc2nc(-c3ccc(OCc4ccc(Cl)cc4)cc3)ncc2C1 [Compound 210, 4-(2-(4-((4-chlorobenzyl)oxy)phenyl)-7,8-dihydropyrido[4,3-d]pyrimidin-6(5H)-yl)-3,3-dimethylbutanoic acid]
EC50 (human S1PR4 receptor): > 1000 nM
EC50 (human S1PR1 receptor): > 1000 nM
EC50 (human S1PR3 receptor): > 1000 nM
EC50 (human S1PR5 receptor): 1000 to 10000 nM

CC(CC(=O)O)CN1CCc2nc(-c3ccc(OCc4ccc(Cl)cc4)cc3F)ncc2C1 (stereo not drawn) [Compound 236, 4-(2-(4-((4-chlorobenzyl)oxy)-2-fluorophenyl)-7,8-dihydropyrido[4,3-d]pyrimidin-6(5H)-yl)-3-methylbutanoic acid]
EC50 (human S1PR4 receptor): > 1000 nM
EC50 (human S1PR1 receptor): > 1000 nM
EC50 (human S1PR3 receptor): > 1000 nM
EC50 (human S1PR5 receptor): < 10 nM

CC(CC(=O)O)CN1CCc2nc(-c3ccc(OCc4ccc(C(C)(C)C)cc4)cc3F)ncc2C1 (stereo not drawn) [Compound 283, 4-[2-[4-[(4-tert-butylphenyl)methoxy]-2-fluoro-phenyl]-7,8-dihydro-5H-pyrido[4,3-d]pyrimidin-6-yl]-3-methyl-butanoic acid 2,2,2-trifluoroacetic acid salt]
EC50 (human S1PR4 receptor): > 1000 nM
EC50 (human S1PR1 receptor): > 1000 nM
EC50 (human S1PR3 receptor): > 1000 nM
EC50 (human S1PR5 receptor): 10 to 100 nM

Cc1ccc(C(F)(F)F)cc1COc1ccc(-c2ncc3c(n2)CCN(CCC(=O)O)C3)cc1 [Compound 88, 3-(2-(4-((2-methyl-5-(trifluoromethyl)benzyl)oxy)phenyl)-7,8-dihydropyrido[4,3-d]pyrimidin-6(5H)-yl)propanoic acid]
EC50 (human S1PR4 receptor): > 1000 nM
EC50 (human S1PR1 receptor): > 1000 nM
EC50 (human S1PR3 receptor): > 1000 nM
EC50 (human S1PR5 receptor): < 10 nM

CC(CC(=O)O)CN1CCc2nc(-c3ccc(OCc4ccc(Cl)cc4)cc3)ncc2C1 (stereo not drawn) [Compound 259, 4-(2-(4-((4-chlorobenzyl)oxy)phenyl)-7,8-dihydropyrido[4,3-d]pyrimidin-6(5H)-yl)-3-methylbutanoic acid]
EC50 (human S1PR4 receptor): > 1000 nM
EC50 (human S1PR1 receptor): > 1000 nM
EC50 (human S1PR3 receptor): > 1000 nM
EC50 (human S1PR5 receptor): 10 to 100 nM

CC(CC(=O)O)CN1CCc2nc(-c3ccc(OCc4c(F)cccc4F)cc3F)ncc2C1 (stereo not drawn) [Compound 240, 4-[2-[4-[(2,6-difluorophenyl)methoxy]-2-fluoro-phenyl]-7,8-dihydro-5H-pyrido[4,3-d]pyrimidin-6-yl]-3-methyl-butanoic acid 2,2,2-trifluoroacetic acid salt]
EC50 (human S1PR4 receptor): > 1000 nM
EC50 (human S1PR1 receptor): > 1000 nM
EC50 (human S1PR3 receptor): > 1000 nM
EC50 (human S1PR5 receptor): < 10 nM

O=C(O)CN1CCc2nc(-c3ccc(OCc4ccc(Cl)c(Cl)c4)cc3)ncc2C1 [Compound 30, 2-(2-(4-((3,4-dichlorobenzyl)oxy)phenyl)-7,8-dihydropyrido[4,3-d]pyrimidin-6(5H)-yl)acetic acid]
EC50 (human S1PR4 receptor): > 1000 nM
EC50 (human S1PR1 receptor): > 1000 nM
EC50 (human S1PR3 receptor): > 1000 nM
EC50 (human S1PR5 receptor): 10 to 100 nM

Cc1ccccc1COc1ccc(-c2ncc3c(n2)CCN(C[C@@H](C)CC(=O)O)C3)cc1C [Compound 249]
EC50 (human S1PR4 receptor): > 1000 nM
EC50 (human S1PR1 receptor): > 1000 nM
EC50 (human S1PR3 receptor): > 1000 nM
EC50 (human S1PR5 receptor): < 10 nM

CC(CCN1CCc2nc(-c3ccc(OCc4cccc(Cl)c4)cc3)c(F)cc2C1)C(=O)O (stereo not drawn) [Compound 182, 4-(2-(4-((3-chlorobenzyl)oxy)phenyl)-3-fluoro-7,8-dihydro-1,6-naphthyridin-6(5H)-yl)-2-methylbutanoic acid]
EC50 (human S1PR4 receptor): > 1000 nM
EC50 (human S1PR1 receptor): > 1000 nM
EC50 (human S1PR3 receptor): > 1000 nM
EC50 (human S1PR5 receptor): < 10 nM

Cc1cccc(COc2ccc(-c3ncc4c(n3)CCN(CC(C)CC(=O)O)C4)c(F)c2)c1C (stereo not drawn) [Compound 231, 4-[2-[4-[(2,3-dimethylphenyl)methoxy]-2-fluoro-phenyl]-7,8-dihydro-5H-pyrido[4,3-d]pyrimidin-6-yl]-3-methyl-butanoic acid 2,2,2-trifluoroacetic acid salt]
EC50 (human S1PR4 receptor): > 1000 nM
EC50 (human S1PR1 receptor): > 1000 nM
EC50 (human S1PR3 receptor): > 1000 nM
EC50 (human S1PR5 receptor): < 10 nM

O=C(O)CCN1CCc2cc(-c3ccc(OCc4cccc(F)c4)cc3)ncc2C1 [Compound 176, 3-(6-(4-((3-fluorobenzyl)oxy)phenyl)-3,4-dihydro-2,7-naphthyridin-2(1H)-yl)propanoic acid]
EC50 (human S1PR4 receptor): > 1000 nM
EC50 (human S1PR1 receptor): > 1000 nM
EC50 (human S1PR3 receptor): > 1000 nM
EC50 (human S1PR5 receptor): < 10 nM

CC(C)(C)c1ccc(COc2ccc(-c3ncc4c(n3)CCN(CCC(=O)O)C4)cc2)cc1 [Compound 87, 3-(2-(4-((4-(tert-butyl)benzyl)oxy)phenyl)-7,8-dihydropyrido[4,3-d]pyrimidin-6(5H)-yl)propanoic acid]
EC50 (human S1PR4 receptor): > 1000 nM
EC50 (human S1PR1 receptor): > 1000 nM
EC50 (human S1PR3 receptor): > 1000 nM
EC50 (human S1PR5 receptor): 10 to 100 nM

Cc1cc(OC(F)(F)F)ccc1COc1ccc(-c2ccc3c(n2)CCN(CCC(=O)O)C3)cc1 [Compound 161, 3-(2-(4-((2-methyl-4-(trifluoromethoxy)benzyl)oxy)phenyl)-7,8-dihydro-1,6-naphthyridin-6(5H)-yl)propanoic acid]
EC50 (human S1PR4 receptor): > 1000 nM
EC50 (human S1PR1 receptor): > 1000 nM
EC50 (human S1PR3 receptor): > 1000 nM
EC50 (human S1PR5 receptor): < 10 nM
